Drawing on ChEMBL document CHEMBL3046719, “Photooxygenation of Nimonol, a Tetranortriterpenoid from Azadirachta indica. A. Juss” (2002), this text covers Activity for 4 compounds.

Each structure is given as a SMILES string.

Common to all, as to format: functional
In assay [1] the test system is Spodoptera litura. Briefly: Antifeedant activity against Spodoptera litura at 1 ug.
For assay [2], the system named is Spodoptera litura. Briefly: Antifeedant activity against Spodoptera litura at 0.5 ug.
The subject of assay [3] is Spodoptera litura. Briefly: Antifeedant activity against Spodoptera litura at 5 ug.

As for `CC(=O)O[C@@H]1[C@H](O)[C@H]2C(C)(C)C(=O)C=C[C@]2(C)[C@H]2CC[C@@]3(C)[C@H](C4=CC(O)OC4=O)C[C@@H]4O[C@@]43[C@]12C` (some centres not stated) [NIMONOLIDE], the Activity in the assay with Spodoptera litura [1] amounted to 80.2%; in the assay on Spodoptera litura [2], 67.5%; in the assay with Spodoptera litura [3], 82.5%.

Consider `CC(=O)O[C@@H]1[C@H](O)[C@H]2C(C)(C)C(=O)C=C[C@]2(C)[C@H]2CC[C@@]3(C)[C@H](C45CC(O)OC4O5)C[C@@H]4O[C@@]43[C@]12C` (some centres not stated) [NIMONOL PP2], for which the Activity with Spodoptera litura [1] was found to be 68.7%; with Spodoptera litura [2], 55.3%; with Spodoptera litura [3], 73.5%.

For the compound `CC(=O)O[C@@H]1[C@H](O)[C@H]2C(C)(C)C(=O)C=C[C@]2(C)[C@H]2CC[C@]3(C)C(=CC[C@H]3c3ccoc3)[C@]12C` [NIMONOL], the Activity with Spodoptera litura [1] was determined as 55.7%; in the assay with Spodoptera litura [2] it was 32.5%; in the assay with Spodoptera litura [3], 32.2%.

On to `C/C=C(\C)C(=O)O[C@H]1C[C@@H](OC(C)=O)[C@@]2(C(=O)OC)CO[C@H]3[C@@H](O)[C@@](C)([C@]45O[C@@]4(C)[C@@H]4C[C@H]5O[C@@H]5OC=C[C@@]54O)[C@H]4[C@]1(CO[C@]4(O)C(=O)OC)[C@@H]32` [AZADIRACHTIN A], for which the figures for the Activity with Spodoptera litura [1], in the assay with Spodoptera litura [2] and with Spodoptera litura [3] were 85.5%, 83.3% and 100%, respectively.
